Test results from patent US20140186329A1, “POLYPHENOL ANALOGS TO TREAT ISCHEMIA” (priority 2011, published 2014).
Where two headings read alike, the source gives them in different places.

Legend:
[1] = tested on: PC12 cells; assay: Glucose starvation; type: cell-based; settings: MTT 24 hr
Procedure: FIG. 5 illustrates pharmacological effects of Baicalein on cultured cells. (A) Trophic factor withdrawal. Primary cortical neurons are prepared from 18-day-old rat embryos, and cultured at low cell density 1×10^6/35 mm dish, in serum containing medium with Baicalein (10-10,000 nM), and viability assayed 2 days later using a live-dead assay. (B) Excitotoxicity assay was done with E14 mouse primary cortical neuron cultures. After 11 days of culture, cells were exposed to 10 μM glutamate for 10 min, followed by the addition of varying concentrations of Baicalein (0.2-5 μM). Cell viability was determined 24 hr later with a standard MTT assay. (C) PC12 cells were glucose-deprived then were incubates in the absence or presence of Baicalein. Cell viability was determined 24 hr later using the MTT assay. (D) RCG-5 nerve cells were treated with 30 μM iodoacetic acid for 2 hr in the presence or absence of 5-25 μM Baicalein. In some experiments, Baicalein was added 2 hr after the ischemic event. Cell survival (%) was measured after 24 hr by the MTT assay. Baicalein added before (□) or 2 hr after ([…]) ischemia. […] When these cells are starved for glucose, there is approximately 70% maximal survival in the presence of NGF. Baicalein promotes over 80% survival (FIG. 5C).

[2] = tested on: HT22 cells; assay: In vitro ischemia assay (HT22 cell IAA assay, MTT); type: cell-based, mouse; settings: 20 μM IAA; for EC50: read-out: HT22 Cell IAA assay EC50; for percent protection from IAA-induced cell death at 0.1 µM: HT-22, compound 100 nM
How it was run: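 Mouse HT22 hippocampal cells in DMEM/7.5% DFCS exposed 2 hr to 20 μM iodoacetic acid with or without derivative, then 20 hr in IAA-free medium still containing derivative. Viability by MTT (2.5 μg/ml, 4 hr, 37 °C), absorbance at 570 nm.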

[3] = tested on: primary mouse cortical neurons; assay: Primary cortical cell glutamate excitotoxicity assay; type: cell-based; settings: 10 μM glutamate, compound 100 nM
Procedure: FIG. 5 illustrates pharmacological effects of Baicalein on cultured cells. (A) Trophic factor withdrawal. Primary cortical neurons are prepared from 18-day-old rat embryos, and cultured at low cell density 1×10^6/35 mm dish, in serum containing medium with Baicalein (10-10,000 nM), and viability assayed 2 days later using a live-dead assay. (B) Excitotoxicity assay was done with E14 mouse primary cortical neuron cultures. After 11 days of culture, cells were exposed to 10 μM glutamate for 10 min, followed by the addition of varying concentrations of Baicalein (0.2-5 μM). Cell viability was determined 24 hr later with a standard MTT assay. (C) PC12 cells were glucose-deprived then were incubates in the absence or presence of Baicalein. Cell viability was determined 24 hr later using the MTT assay. (D) RCG-5 nerve cells were treated with 30 μM iodoacetic acid for 2 hr in the presence or absence of 5-25 μM Baicalein. In some experiments, Baicalein was added 2 hr after the ischemic event. Cell survival (%) was measured after 24 hr by the MTT assay. Baicalein added before (□) or 2 hr after ([…]) ischemia.
Primary cultures of cortical neurons that die due to excitotoxicity were prepared as described previously. Briefly, BALB/c mouse embryo cortices were minced and treated with 0.1% trypsin for 20 min. After centrifugation, the cells are resuspended in 827 Neurobasal medium (Invitrogen) plus 10% fetal calf serum and are dissociated by repeated pipetting through a 1 mL blue Eppendorf pipette tip. Then the cells are plated at 1×10^5 cells per well in 96-well poly-L-lysine and laminin-coated microtiter plates (Becton Dickinson, Bedford, Mass., USA) in 827 Neurobasal plus 10% fetal calf serum and 20% glial growth-conditioned medium. Two days later the medium is aspirated and replaced by serum-free 827 Neurobasal medium plus 10 μg/mL cytosine arabinoside. The cultures are used without media change 11 days after plating and are essentially free of astrocytes. They are exposed to 10 μM glutamate followed by varying concentrations of the compounds. Cell viability is determined 24 h later using the fluorescent live/dead assay. Glial conditioned medium is prepared from confluent rat astrocyte cultures. The cells are washed twice with serum-free medium and incubated for 2 days in serum-free Neurobasal medium to produce the growth conditioned medium.
(1) ≧80% cell survival in mouse HT22 hippocampal cells in the presence of 20 μM iodoacetic acid (IAA) (in vitro ischemia model). See, Maher, et al., Brain Res. 2007, 1173:117-25. (2) ≧35% cell survival in primary mouse cortical neurons in the presence of 10 μM glutamate (in vitro excitotoxicity assay). See, Ishige, et al., Free Radic Biol Med, 2001, 30(4): p. 433-46.

Row | Molecule | survival of glucose-starved cells [1] | EC50 ([2]; HT22 cells) [µM] | percent protection from IAA-induced cell death at 0.1 µM ([2]; Mus musculus) [%] | Primary Cortical Cell assay-Glutamate (% protection @ 100 nM) [3] [%] | EC50 ([2]; Mus musculus, HT-22, HT22 cells) [µM]
1 | NGF: NGF, comparator in the PC12 glucose starvation assay | approximately 70% | – | – | – | –
2 | CCc1ccc2oc(-c3ccc(O)c(O)c3)c(O)c(=O)c2c1 [PM-013, 2-(3,4-dihydroxyphenyl)-6-ethyl-3-hydroxy-4H-chromen-4-one] | – | 0.061 | 81 | 51 | –
3 | O=c1cc(-c2cc(O)c(O)c(O)c2)oc2ccccc12 [PM-008, 3′,4′,5′-trihydroxyflavone] | – | 0.042 | 88 | 100 | –
4 | Cc1ccc2oc(-c3ccc(O)c(O)c3)c(O)c(=O)c2c1 [PM-010, 2-(3,4-dihydroxyphenyl)-3-hydroxy-6-methyl-4H-chromen-4-one] | – | 0.046 | 89 | 65 | –
5 | CCCc1ccc2oc(-c3ccc(O)c(O)c3)c(O)c(=O)c2c1 [PM-012, 2-(3,4-dihydroxyphenyl)-3-hydroxy-6-propyl-4H-chromen-4-one] | – | 0.061 | 80 | 82 | 0.038
